# Tests used:
# [1] = system: blood pressure in the carotid artery; test: animal or person; conditions: for ED20: Rattus norvegicus, iv, read-out: Blood pressure-lowering action ED 20%; for animals died: 10 mg/kg, rats
# Protocol: 2. Blood pressure-lowering action on narcotized rats.
# The blood pressure in the carotid artery is measured by means of a Statham transducer.
# (2) Intravenous administration to rats under urethane narcosis. ED 20% =
# dose, in mg/kg, which lowers the blood pressure by 20%.
# in vivo = conditions: for LD 50 / toxicity compared with propranolol (in words): i.p., mice
# From the text: 4. Acute toxicity in mice
# The period of observation is 1 week.
# (4) Intraperitoneal administration to mice.
# [2] = system: isoproterenol-induced tachycardia; conditions: for ED50: Felis catus, read-out: β-Sympatholytic action ED 50%; for ED50 / β-Sympatholytic action R.A. (relative activity): iv; for β-sympatholytic activity (in words) / β-Sympatholytic action R.A. (relative activity): in vivo
# systolic blood pressure = test: Anti-hypertensive action on spontaneously hypertonic rats (oral); type: in vivo, male spontaneously hypertonic Okamoto rats
# Protocol: 3. Anti-hypertensive action on spontaneously hypertonic rats.
# The substances are administered orally to groups of 8 male spontaneously hypertonic Okamoto rats (weight 280-350 g). Before, and two hours after, the administration the systolic blood pressure is measured non-surgically on the rats' tails by means of piezoelectric crystal sensors.
# [3] = system: blood pressure in the carotid artery; conditions: general statement, no test or species given; cited from earlier work
# [4] = 0.001 mg/kg i.v., cats under hexobarbital narcosis, average
Compound,ED20 [1],LD 50 / toxicity compared with propranolol (in words) (in vivo),ED50 [2],β-Sympatholytic action R.A. (relative activity) [2],other results
"CCc1cc(C=Cc2ccccc2OCC(O)CNC(C)(C)C)on1 (stereo not drawn) [Example 6, 3-Ethyl-5-[2-(2-hydroxy-3-tert.-butylaminopropoxy)-styryl]-isoxazole]",0.93 mg/kg,"of the same toxicity, or somewhat more toxic",0.018 mg/kg,6.1,β-sympatholytic activity (in words) [2]: high activity
"Cc1cc(C=Cc2ccccc2OCC(O)CNC(C)C)on1 (stereo not drawn) [Example 1, 3-Methyl-5-[2-(2-hydroxy-3-isopropyl-aminopropoxy)-styryl]-isoxazole]",0.65 mg/kg,"of the same toxicity, or somewhat more toxic",0.0077 mg/kg,–,β-sympatholytic activity (in words) [2]: high activity
"CC(C)NCC(O)c1ccc(O)c(O)c1 (stereo not drawn) [isoproterenol, reference compound]",–,–,–,–,"increase of pulse rate [2, 4]: 61 beats; increase of pulse rate, percent [2, 4]: 40%"
"Cc1cc(C=Cc2ccccc2OCC(O)CNC(C)(C)C)on1 (stereo not drawn) [Example 3, 3-Methyl-5-[2-(2-hydroxy-3-tert.-butylaminopropoxy)-styryl]-isoxazole]",0.4 mg/kg,somewhat higher than that of propranolol,0.0055 mg/kg,–,"animals died ([1]; i.v.): 1 out of 6; Blood pressure-lowering action ED 20% ([1]; i.v., rats under urethane narcosis, dose lowering mean carotid artery pressure by 20%): 0.40 mg/kg; ED20 (systolic blood pressure; Rattus norvegicus, po, 2 h, read-out: Anti-hypertensive action ED 20%): 14.5 mg/kg"
"C#CC(C)(C)NCC(O)COc1ccccc1C=Cc1cc(C)no1 (stereo not drawn) [Example 13, 3-Methyl-5-[2-(2-hydroxy-3-(3-methyl-but-1-ynyl-3-amino)-propoxy)-styryl]-isoxazole]",1 mg/kg,more than twice as high as that of propranolol,0.017 mg/kg,6.5,–
"CC(C)NCC(O)COc1cccc2ccccc12 (stereo not drawn) [Propranolol, reference compound]",–,–,0.11 mg/kg,–,"animals died ([1]; i.v.): 2 out of 6; anti-hypertensive action, oral (in words) (systolic blood pressure; oral, spontaneously hypertonic rats, propranolol up to a dose of 100 mg/kg): ineffective; anti-hypertensive action of conventional β-sympatholytic agents (in words) [3]: only exhibit an anti-hypertensive action on lengthy administration"
"CCc1cc(C=Cc2ccccc2OCC(O)CNC2CC2)on1 (stereo not drawn) [Example 5, 3-Ethyl-5-[2-(2-hydroxy-3-cyclopropylaminopropoxy)-styryl]-isoxazole]",0.83 mg/kg,"of the same toxicity, or somewhat more toxic",0.12 mg/kg,0.9,"LD50 at 168 h (in vivo; mouse, in vivo, ip): 95 mg/kg"

# — patent US4251539A, “Amino derivatives of 3-alkyl-5-(2-hydroxystyryl)-isoxazoles” (BASF Aktiengesellschaft, priority 1978, dated 1981)
